Common to all, as to experiment: Measurement of antifungal activity (minimum inhibitory concentration), agar dilution
Common to all, as to assay type: cell-based
For orientation: In agar dilution the substance is mixed into plates at graded concentrations.

In assay [1] the test system is T. mentagrophytes IF05811. The conditions noted are these: Sabouraud's agar, one week at 27° C.; for MIC: Trichophyton mentagrophytes, 168 h, read-out: MIC value (minimum compound concentration that definitely inhibited any visible growth). The method, then: (§1) Measurement of Antifungal Activity (Measurement of Minimum Inhibitory Concentration)
(§2) Antifungal activity of representative compounds of the present invention against dermatophytes was investigated.
(§3) Briefly, strains of dermatophytes to be tested were grown on slant media prepared with Sabouraud's agar (product of Nissuiseiyaku; pepton 1.0%, glucose 4.0%, agar 1.5%, pH 5.9) at 27° C. for two weeks, so as to allow sufficient production of conidiospores. Subsequently, sterilized saline solution containing 0.05% (wt/vol) TWEEN 80 was added thereto, and while the surface of the each medium was scraped with a platinum loop, the conidiospores were deaggregated and suspended in the saline solution. The suspension was filtered through a double face sterilized gauze sheet so as to remove agar and hypha pellets. The filtrate was diluted with a saline solution so as to make the concentration of the conidiospores decrease to 10^6/ml by use of a cytometer, and the resultant dilute filtrate served as a test dermatophytes solution. Meanwhile, a stock solution was prepared by adding 1 ml of dimethylsulfoxide to 10 mg of a compound to be tested. An aliquot (500 μl) of the stock solution was combined with dimethylsulfoxide (500 μl), to thereby prepare a 2-fold dilute solution. Dilution was similarly repeated until 13 different dilute solutions ranging from 10 to 0.0025 mg/ml (concentrations of the ultimate test system: 100-0.025 μg/ml) were obtained. 100 μl each of the diluted solutions of the test compound was dispensed into the sterilized petri dish. A Sabouraud's agar (pepton 1.0%, glucose 4.0%, agar 1.5%, pH 5.9; 10 ml), which had been sterilized and dissolved, was added thereto, and the mixture was thoroughly mixed and solidified. Next, the above-prepared test dermatophytes solution was planted in amounts of 5 μl by use of a microplanter.

In another assay the test system is T. rubrum IF09185. Particulars: Sabouraud's agar, one week at 27° C.; for MIC: Trichophyton rubrum, 168 h, read-out: MIC value (minimum compound concentration that definitely inhibited any visible growth). The method, then:
as §1, §2, §3

For a further assay, the system named is M. gypseum IF08231. Particulars: M. gypseum IF08231 (Table 2), Sabouraud's agar, one week at 27° C.; for MIC: Nannizzia gypsea, 168 h, read-out: MIC value (minimum compound concentration that definitely inhibited any visible growth). The method, then:
as §1, §2, §3

Another assay relates to M. canis TIMM0760. Particulars: Sabouraud's agar, one week at 27° C.; for MIC: Microsporum canis, 168 h, read-out: MIC value (minimum compound concentration that definitely inhibited any visible growth). As for the experimental part: as §1, §2, §3
Assay [2] relates to T. mentagrophytes TIMM1177. Particulars: Sabouraud's agar, one week at 27° C.; for MIC: Trichophyton mentagrophytes, 168 h, read-out: MIC value (minimum compound concentration that definitely inhibited any visible growth). The method, then:
as §1, §2, §3

The test system of a further assay is T. violaceum TIMM1264. The conditions noted are these: Sabouraud's agar, one week at 27° C.; for MIC: Trichophyton violaceum, 168 h, read-out: MIC value (minimum compound concentration that definitely inhibited any visible growth). As for the experimental part:
as §1, §2, §3

In assay [3] the test system is T. mentagrophytes TIMM1189. The conditions noted are these: Sabouraud's agar, one week at 27° C.; for MIC: Trichophyton mentagrophytes, 168 h, read-out: MIC value (minimum compound concentration that definitely inhibited any visible growth). As for the experimental part:
as §1, §2, §3

In another assay the test system is T. rubrum IF05808. Particulars: Sabouraud's agar, one week at 27° C.; for MIC: Trichophyton rubrum, 168 h, read-out: MIC value (minimum compound concentration that definitely inhibited any visible growth). The method, then:
as §1, §2, §3

In assay [4] the test system is T. mentagrophytes IF07552. The conditions noted are these: Sabouraud's agar, one week at 27° C.; for MIC: Trichophyton mentagrophytes, 168 h, read-out: MIC value (minimum compound concentration that definitely inhibited any visible growth). The method, then: as §1, §2, §3

Experimental findings from patent US6586633B1, “Amine derivatives” (Pola Chemical Industries, Inc., priority 2001, dated 2003) are described below.

Each structure is given as a SMILES string.

For the compound `C=C(C)c1cccc(CN(C)Cc2ccc(C(C)(C)C)cc2)c1.Cl` [Compound 77, N-(4-tert-Butylbenzyl)-N-methyl-(3-isopropenylbenzyl)amine Hydrochloride], the MIC in assay [1] stood at 0.39 µg/mL; in the assay with T. rubrum IF09185 it was 0.1 µg/mL; with M. gypseum IF08231 it was 0.39 µg/mL; with M. canis TIMM0760, 0.2 µg/mL; in [2] it was 0.2 µg/mL; in the assay with T. violaceum TIMM1264 it was 0.2 µg/mL. The results for the MIC (in assay [3]; in the assay with T. rubrum IF05808; in [4]) were 0.2 µg/mL, 0.1 µg/mL and 0.1 µg/mL, respectively.
In the case of `C=Cc1cccc(CN(C)Cc2ccc(C(C)(C)C)cc2)c1.Cl` [Compound 81, N-(4-tert-Butylbenzyl)-N-methyl-(3-vinylbenzyl)amine Hydrochloride], the MIC came to 0.39 µg/mL in [1]; 0.39 µg/mL in the assay on T. rubrum IF09185; 0.39 µg/mL in the assay on M. gypseum IF08231; 0.2 µg/mL in the assay on M. canis TIMM0760; 0.39 µg/mL in assay [2]; 0.78 µg/mL in the assay on T. violaceum TIMM1264. In addition, the MIC in assay [3] was found to be 0.78 µg/mL; in the assay on T. rubrum IF05808, 0.2 µg/mL; in [4], 0.39 µg/mL.
As for `C=C(C)c1cc(C)cc(CN(C)Cc2ccc(C(C)(C)C)cc2)c1.Cl` [Compound 88, N-(4-tert-Butylbenzyl)-N-methyl-(3-isopropenyl-5-methylbenzyl)amine hydrochloride], the MIC amounted to 0.1 µg/mL in [1]; 0.05 µg/mL with T. rubrum IF09185; 0.1 µg/mL with M. gypseum IF08231; 0.05 µg/mL with M. canis TIMM0760; 0.1 µg/mL in assay [2]; 0.1 µg/mL with T. violaceum TIMM1264. The MIC (in [3]; with T. rubrum IF05808; in assay [4]) was 0.05 µg/mL throughout.
For `C=C(CC)c1cccc(CN(C)Cc2ccc(C(C)(C)C)cc2)c1.Cl` [Compound 95, N-(4-tert-Butylbenzyl)-N-methyl-[3-(1-ethylvinyl)benzyl]amine Hydrochloride], the MIC in assay [1] was found to be 1.56 µg/mL; in the assay on T. rubrum IF09185 it was 0.39 µg/mL; in the assay on M. gypseum IF08231, 3.12 µg/mL; in the assay on M. canis TIMM0760 it was 0.2 µg/mL; in assay [2], 0.78 µg/mL; with T. violaceum TIMM1264 it was 0.78 µg/mL. Moreover, the MIC stood at 0.78 µg/mL in [3], 0.39 µg/mL in the assay on T. rubrum IF05808 and 0.78 µg/mL in assay [4].
Turning to `C/C=C(/C)c1cccc(CN(C)Cc2ccc(C(C)(C)C)cc2)c1.Cl` [Compound 97, cis-N-(4-tert-Butylbenzyl)-N-methyl-[3-(1-methyl-1-propenyl)benzyl]amine Hydrochloride], the “MIC value (minimum compound concentration that definitely inhibited any visible growth)” value was 1.56 µg/mL in [1]; 0.78 µg/mL against T. rubrum IF09185; 3.12 µg/mL in the assay with M. gypseum IF08231; 0.39 µg/mL in the assay on M. canis TIMM0760; 1.56 µg/mL in assay [2]; 1.56 µg/mL against T. violaceum TIMM1264. Besides, the “MIC value (minimum compound concentration that definitely inhibited any visible growth)” value came to 0.78 µg/mL in [3], 1.56 µg/mL in the assay with T. rubrum IF05808 and 3.12 µg/mL in assay [4].
On to `C=C(C)c1cc(F)cc(CN(C)Cc2ccc(C(C)(C)C)cc2)c1.Cl` [Compound 101, N-(4-tert-Butylbenzyl)-N-methyl-(3-fluoro-5-isopropenylbenzyl)amine Hydrochloride], for which the MIC in assay [1] is 0.1 µg/mL; in the assay with T. rubrum IF09185 it was 0.1 µg/mL; with M. gypseum IF08231 it was 0.2 µg/mL; in the assay with M. canis TIMM0760, 0.1 µg/mL; in [2], 0.2 µg/mL; in the assay on T. violaceum TIMM1264, 0.1 µg/mL. The MIC in assay [3] stood at 0.1 µg/mL; in the assay with T. rubrum IF05808 it was 0.05 µg/mL; in [4] it was 0.1 µg/mL.
For `C=C(C)c1ccccc1CN(C)Cc1ccc(C(C)(C)C)cc1.Cl` [Compound 108, N-(4-tert-Butylbenzyl)-N-methyl-(2-isopropenylbenzyl)amine Hydrochloride], the MIC in assay [1] was found to be 1.56 µg/mL; in the assay on T. rubrum IF09185, 0.78 µg/mL; in the assay on M. gypseum IF08231, 1.56 µg/mL; in the assay on M. canis TIMM0760, 1.56 µg/mL; in [2], 3.12 µg/mL; in the assay on T. violaceum TIMM1264, 3.12 µg/mL. Moreover, the MIC was found to be 1.56 µg/mL in assay [3], 0.78 µg/mL in the assay on T. rubrum IF05808 and 1.56 µg/mL in assay [4].
As for `C=C(C)c1cccc(CN(CC)Cc2ccc(C(C)(C)C)cc2)c1.Cl` [Compound 114, N-(4-tert-Butylbenzyl)-N-ethyl-(3-isopropenylbenzyl)amine Hydrochloride], the MIC in assay [1] amounted to 0.78 µg/mL; in the assay on T. rubrum IF09185, 0.2 µg/mL; with M. gypseum IF08231, 0.2 µg/mL; with M. canis TIMM0760, 0.2 µg/mL; in assay [2], 0.39 µg/mL; with T. violaceum TIMM1264, 0.39 µg/mL. Also, the MIC in assay [3] turned out to be 0.39 µg/mL; with T. rubrum IF05808 it was 0.2 µg/mL; in assay [4] it was 0.39 µg/mL.
Turning to `C=C(C)c1cc(CN(C)Cc2ccc(C(C)(C)C)cc2)ccc1C.Cl` [Compound 126, N-(4-tert-Butylbenzyl)-N-methyl-(3-isopropenyl-4-methylbenzyl)amine Hydrochloride], the MIC in assay [1] amounted to 12.5 µg/mL; in the assay with T. rubrum IF09185 it was 3.12 µg/mL; in the assay with M. gypseum IF08231 it was 6.25 µg/mL; in the assay on M. canis TIMM0760 it was 1.56 µg/mL; in [2] it was 12.5 µg/mL; with T. violaceum TIMM1264 it was 3.12 µg/mL. For the same compound, the MIC (in [3]; with T. rubrum IF05808; in assay [4]) was 3.12 µg/mL throughout.
